# Experimental data reported in ChEMBL document CHEMBL3991601, “The target landscape of clinical kinase drugs” (Science, 2017).
# The source made the active and inactive calls.
# What was measured:
# [1] = biological target: RAC-alpha serine/threonine-protein kinase (Homo sapiens, UniProt P31749)
# [2] = biological target: Tyrosine-protein kinase BTK (Homo sapiens, UniProt Q06187)
# [3] = biological target: Citron Rho-interacting kinase (Homo sapiens, UniProt O14578)
# [4] = biological target: T1, dCTP pyrophosphatase 1 (Homo sapiens, UniProt Q9H773)
# T1 sequence (Q9H773 whole entry): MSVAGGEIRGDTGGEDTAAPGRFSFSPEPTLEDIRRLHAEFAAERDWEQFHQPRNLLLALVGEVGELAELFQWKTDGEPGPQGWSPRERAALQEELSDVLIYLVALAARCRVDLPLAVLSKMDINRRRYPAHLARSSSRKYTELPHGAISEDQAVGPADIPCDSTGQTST
# [5] = biological target: Inosine-5'-monophosphate dehydrogenase 2 (Homo sapiens, UniProt P12268)
# [6] = biological target: T2, Dual specificity mitogen-activated protein kinase kinase 3 (Homo sapiens, UniProt P46734)
# T2 sequence (P46734 whole entry): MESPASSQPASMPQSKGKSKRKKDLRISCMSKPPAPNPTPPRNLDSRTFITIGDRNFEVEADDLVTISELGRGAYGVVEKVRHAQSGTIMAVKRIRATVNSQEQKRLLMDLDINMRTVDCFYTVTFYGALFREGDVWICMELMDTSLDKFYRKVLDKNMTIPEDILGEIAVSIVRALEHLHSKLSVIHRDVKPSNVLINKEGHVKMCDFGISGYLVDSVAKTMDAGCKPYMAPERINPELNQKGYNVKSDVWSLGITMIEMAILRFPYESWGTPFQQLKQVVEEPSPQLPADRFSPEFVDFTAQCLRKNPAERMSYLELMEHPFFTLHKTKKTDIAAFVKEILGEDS
# [7] = biological target: T3, Mitogen-activated protein kinase kinase kinase 3 (Homo sapiens, UniProt Q99759)
# T3 sequence (Q99759 whole entry): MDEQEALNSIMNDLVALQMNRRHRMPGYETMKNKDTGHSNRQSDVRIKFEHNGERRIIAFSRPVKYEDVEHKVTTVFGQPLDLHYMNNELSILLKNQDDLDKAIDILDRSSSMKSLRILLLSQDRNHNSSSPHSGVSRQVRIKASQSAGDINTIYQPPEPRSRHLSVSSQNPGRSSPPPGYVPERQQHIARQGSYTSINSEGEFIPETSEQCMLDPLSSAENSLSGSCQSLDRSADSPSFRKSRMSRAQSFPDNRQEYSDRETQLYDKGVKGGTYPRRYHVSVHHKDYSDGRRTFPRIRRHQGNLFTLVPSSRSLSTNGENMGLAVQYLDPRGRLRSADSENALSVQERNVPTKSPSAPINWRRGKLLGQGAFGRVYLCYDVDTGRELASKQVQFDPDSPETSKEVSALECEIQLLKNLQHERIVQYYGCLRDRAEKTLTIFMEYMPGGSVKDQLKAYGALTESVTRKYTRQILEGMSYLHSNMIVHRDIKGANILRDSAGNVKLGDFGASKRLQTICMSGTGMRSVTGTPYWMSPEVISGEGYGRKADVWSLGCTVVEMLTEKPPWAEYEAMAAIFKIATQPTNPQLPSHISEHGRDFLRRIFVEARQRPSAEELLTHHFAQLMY
# [8] = biological target: Mitogen-activated protein kinase kinase kinase kinase 4 (Homo sapiens, UniProt O95819)
# [9] = biological target: T4, Dynamin-like GTPase OPA1, mitochondrial (Homo sapiens, UniProt O60313)
# T4 sequence (O60313 whole entry): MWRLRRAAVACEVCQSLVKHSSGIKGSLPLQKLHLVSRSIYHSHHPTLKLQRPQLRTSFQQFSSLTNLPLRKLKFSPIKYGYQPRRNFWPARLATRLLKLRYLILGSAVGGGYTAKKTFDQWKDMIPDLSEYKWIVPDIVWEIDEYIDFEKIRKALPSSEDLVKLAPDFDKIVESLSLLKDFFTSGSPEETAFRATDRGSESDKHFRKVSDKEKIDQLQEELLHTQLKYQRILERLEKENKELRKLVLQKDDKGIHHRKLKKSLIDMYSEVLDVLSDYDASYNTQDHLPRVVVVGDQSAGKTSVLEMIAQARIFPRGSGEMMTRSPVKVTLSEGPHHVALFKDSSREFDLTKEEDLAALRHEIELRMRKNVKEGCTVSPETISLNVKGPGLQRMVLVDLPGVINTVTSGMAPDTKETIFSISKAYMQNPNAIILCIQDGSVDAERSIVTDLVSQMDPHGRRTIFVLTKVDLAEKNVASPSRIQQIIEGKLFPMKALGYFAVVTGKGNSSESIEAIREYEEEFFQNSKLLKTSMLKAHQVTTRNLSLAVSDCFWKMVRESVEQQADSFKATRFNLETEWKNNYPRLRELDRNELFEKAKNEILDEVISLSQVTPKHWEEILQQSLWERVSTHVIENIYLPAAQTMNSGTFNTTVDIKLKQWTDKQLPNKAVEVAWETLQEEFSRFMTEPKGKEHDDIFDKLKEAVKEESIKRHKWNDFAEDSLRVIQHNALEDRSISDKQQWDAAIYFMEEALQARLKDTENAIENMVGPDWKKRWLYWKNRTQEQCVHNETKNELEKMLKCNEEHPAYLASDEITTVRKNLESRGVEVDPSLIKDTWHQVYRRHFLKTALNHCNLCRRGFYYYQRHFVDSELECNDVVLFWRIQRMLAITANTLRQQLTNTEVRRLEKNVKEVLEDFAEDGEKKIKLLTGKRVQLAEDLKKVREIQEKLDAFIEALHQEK
# [10] = biological target: 5'-AMP-activated protein kinase catalytic subunit alpha-1 (Homo sapiens, UniProt Q13131)
# [11] = biological target: T5, ADP/ATP translocase 3 (Homo sapiens, UniProt P12236)
# T5 sequence (P12236 whole entry): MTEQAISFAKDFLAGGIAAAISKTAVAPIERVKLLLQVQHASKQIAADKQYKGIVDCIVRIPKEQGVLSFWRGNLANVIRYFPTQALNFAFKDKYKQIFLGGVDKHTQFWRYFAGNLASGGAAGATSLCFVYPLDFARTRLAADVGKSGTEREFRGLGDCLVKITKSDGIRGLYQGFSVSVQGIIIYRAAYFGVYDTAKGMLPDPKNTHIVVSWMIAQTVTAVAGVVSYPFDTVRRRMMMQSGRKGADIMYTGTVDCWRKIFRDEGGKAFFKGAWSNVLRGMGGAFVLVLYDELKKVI
# [12] = biological target: DNA topoisomerase 2-beta (Homo sapiens, UniProt Q02880)
# [13] = biological target: Wee1-like protein kinase (Homo sapiens, UniProt P30291)
# Note: in the data inactive means no Kd found up to 30 µM.
# RAC-alpha serine/threonine-protein kinase, sequence (P31749 whole entry): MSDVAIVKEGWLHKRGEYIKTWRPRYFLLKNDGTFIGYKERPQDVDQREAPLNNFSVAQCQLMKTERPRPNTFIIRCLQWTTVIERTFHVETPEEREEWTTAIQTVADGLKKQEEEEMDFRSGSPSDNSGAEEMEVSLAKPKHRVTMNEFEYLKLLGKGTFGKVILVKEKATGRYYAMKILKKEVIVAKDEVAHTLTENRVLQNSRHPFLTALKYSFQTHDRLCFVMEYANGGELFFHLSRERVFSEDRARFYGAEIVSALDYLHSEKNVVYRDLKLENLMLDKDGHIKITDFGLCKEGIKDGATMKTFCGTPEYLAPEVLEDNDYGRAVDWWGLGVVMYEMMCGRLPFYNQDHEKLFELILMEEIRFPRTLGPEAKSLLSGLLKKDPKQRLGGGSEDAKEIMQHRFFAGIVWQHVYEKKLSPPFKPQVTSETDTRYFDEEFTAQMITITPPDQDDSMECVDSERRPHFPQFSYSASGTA
# DNA topoisomerase 2-beta, sequence (Q02880 whole entry): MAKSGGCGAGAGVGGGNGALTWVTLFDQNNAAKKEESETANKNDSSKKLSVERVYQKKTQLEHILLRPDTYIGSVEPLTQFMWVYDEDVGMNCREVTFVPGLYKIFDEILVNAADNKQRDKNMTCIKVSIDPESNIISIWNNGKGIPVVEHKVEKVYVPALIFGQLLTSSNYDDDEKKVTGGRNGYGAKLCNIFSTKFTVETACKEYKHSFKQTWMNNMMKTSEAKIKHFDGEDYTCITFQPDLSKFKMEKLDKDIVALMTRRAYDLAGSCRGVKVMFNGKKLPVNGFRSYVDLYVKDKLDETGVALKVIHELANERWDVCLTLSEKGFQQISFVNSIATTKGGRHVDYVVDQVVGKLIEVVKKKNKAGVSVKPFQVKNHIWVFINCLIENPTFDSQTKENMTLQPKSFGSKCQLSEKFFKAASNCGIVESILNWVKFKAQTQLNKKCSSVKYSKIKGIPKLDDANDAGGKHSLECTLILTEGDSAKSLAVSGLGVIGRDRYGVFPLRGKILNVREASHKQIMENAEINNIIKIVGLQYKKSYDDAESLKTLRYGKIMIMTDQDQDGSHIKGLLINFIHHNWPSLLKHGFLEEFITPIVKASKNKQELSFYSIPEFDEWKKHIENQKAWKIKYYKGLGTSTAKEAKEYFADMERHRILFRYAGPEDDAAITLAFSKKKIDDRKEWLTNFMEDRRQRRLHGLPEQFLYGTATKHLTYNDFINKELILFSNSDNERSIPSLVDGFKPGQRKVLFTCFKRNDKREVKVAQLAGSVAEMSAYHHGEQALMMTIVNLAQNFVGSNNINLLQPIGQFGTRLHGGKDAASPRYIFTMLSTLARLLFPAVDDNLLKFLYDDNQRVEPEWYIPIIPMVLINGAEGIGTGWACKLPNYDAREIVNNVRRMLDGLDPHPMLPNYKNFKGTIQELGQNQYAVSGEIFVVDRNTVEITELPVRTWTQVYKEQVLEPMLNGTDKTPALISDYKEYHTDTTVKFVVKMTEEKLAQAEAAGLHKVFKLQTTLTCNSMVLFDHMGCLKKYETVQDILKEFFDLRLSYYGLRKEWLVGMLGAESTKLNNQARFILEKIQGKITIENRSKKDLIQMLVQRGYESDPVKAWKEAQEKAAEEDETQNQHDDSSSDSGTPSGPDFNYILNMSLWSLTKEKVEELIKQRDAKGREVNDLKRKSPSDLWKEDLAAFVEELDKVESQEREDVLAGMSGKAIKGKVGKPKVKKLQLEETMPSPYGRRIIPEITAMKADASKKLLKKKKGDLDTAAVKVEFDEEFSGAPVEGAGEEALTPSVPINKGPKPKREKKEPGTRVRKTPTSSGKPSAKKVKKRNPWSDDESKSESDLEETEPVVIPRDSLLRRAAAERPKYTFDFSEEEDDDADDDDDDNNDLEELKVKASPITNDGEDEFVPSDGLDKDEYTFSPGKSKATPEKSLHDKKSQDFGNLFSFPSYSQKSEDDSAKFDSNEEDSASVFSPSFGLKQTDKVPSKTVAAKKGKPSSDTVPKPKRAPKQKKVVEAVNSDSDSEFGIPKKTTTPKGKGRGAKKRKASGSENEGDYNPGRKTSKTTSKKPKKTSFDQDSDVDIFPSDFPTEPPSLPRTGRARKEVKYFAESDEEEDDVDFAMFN
# Tyrosine-protein kinase BTK, sequence (Q06187 whole entry): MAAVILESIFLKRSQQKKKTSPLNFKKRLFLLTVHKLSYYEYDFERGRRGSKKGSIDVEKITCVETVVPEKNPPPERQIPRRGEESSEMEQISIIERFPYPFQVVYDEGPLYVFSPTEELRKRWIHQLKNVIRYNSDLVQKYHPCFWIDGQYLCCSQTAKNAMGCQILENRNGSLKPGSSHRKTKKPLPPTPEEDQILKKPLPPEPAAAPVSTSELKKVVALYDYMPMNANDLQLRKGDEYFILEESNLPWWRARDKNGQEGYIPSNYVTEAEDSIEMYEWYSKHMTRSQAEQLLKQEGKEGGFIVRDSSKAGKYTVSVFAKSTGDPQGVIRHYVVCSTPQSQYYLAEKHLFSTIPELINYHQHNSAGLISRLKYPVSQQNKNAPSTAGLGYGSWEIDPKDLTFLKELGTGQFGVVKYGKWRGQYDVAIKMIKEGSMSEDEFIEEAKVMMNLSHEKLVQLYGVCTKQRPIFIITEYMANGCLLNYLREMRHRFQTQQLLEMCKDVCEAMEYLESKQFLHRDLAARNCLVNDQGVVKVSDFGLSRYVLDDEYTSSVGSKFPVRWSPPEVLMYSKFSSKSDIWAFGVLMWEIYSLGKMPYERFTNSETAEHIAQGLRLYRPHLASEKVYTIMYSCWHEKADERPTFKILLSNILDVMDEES
# 5'-AMP-activated protein kinase catalytic subunit alpha-1, sequence (Q13131 whole entry): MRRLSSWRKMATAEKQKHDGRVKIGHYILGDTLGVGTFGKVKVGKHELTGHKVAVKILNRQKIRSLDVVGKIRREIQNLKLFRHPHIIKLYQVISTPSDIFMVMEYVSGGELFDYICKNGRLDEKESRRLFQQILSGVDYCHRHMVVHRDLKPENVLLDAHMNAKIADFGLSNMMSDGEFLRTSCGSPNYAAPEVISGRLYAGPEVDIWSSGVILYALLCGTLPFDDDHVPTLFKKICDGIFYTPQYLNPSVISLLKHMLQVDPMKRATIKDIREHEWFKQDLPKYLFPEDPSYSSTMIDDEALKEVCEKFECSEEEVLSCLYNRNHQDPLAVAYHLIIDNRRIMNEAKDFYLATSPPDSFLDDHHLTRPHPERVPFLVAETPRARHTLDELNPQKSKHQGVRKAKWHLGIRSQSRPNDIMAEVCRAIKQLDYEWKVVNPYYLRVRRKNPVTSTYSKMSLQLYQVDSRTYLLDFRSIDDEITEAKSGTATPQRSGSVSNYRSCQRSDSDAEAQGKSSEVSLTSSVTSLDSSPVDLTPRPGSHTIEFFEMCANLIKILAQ
# Wee1-like protein kinase, sequence (P30291 whole entry): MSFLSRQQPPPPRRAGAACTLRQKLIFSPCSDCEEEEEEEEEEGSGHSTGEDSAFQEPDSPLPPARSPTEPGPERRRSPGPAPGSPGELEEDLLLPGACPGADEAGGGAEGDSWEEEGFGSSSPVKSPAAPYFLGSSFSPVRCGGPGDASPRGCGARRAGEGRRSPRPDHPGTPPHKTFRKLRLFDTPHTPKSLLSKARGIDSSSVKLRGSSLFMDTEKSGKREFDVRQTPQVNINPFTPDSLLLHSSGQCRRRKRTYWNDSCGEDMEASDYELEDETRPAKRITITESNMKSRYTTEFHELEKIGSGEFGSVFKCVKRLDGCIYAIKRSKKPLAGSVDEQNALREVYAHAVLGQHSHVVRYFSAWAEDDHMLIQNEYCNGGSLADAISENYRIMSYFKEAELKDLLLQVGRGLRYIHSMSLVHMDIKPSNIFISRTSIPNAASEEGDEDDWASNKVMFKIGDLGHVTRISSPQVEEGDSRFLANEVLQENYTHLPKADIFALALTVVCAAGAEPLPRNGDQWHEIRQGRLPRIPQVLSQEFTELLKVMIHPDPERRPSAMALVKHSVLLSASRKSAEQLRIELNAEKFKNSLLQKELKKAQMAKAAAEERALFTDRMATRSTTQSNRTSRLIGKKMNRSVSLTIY
Kd [1],Kd [2],Kd [3],Kd [4],Kd [5],Kd [6],Kd [7],Kd [8],Kd [9],Kd [10],Kd [11],Kd [12],Kd [13],SMILES
> 30 µM (inactive),> 30 µM (inactive),> 30 µM (inactive),> 30 µM (inactive),> 30 µM (inactive),> 30 µM (inactive),> 30 µM (inactive),> 30 µM (inactive),> 30 µM (inactive),> 30 µM (inactive),> 30 µM (inactive),> 30 µM (inactive),> 30 µM (inactive),C[C@@H]1COC(Nc2ccc3ncnc(Nc4ccc(OCc5nccs5)c(Cl)c4)c3c2)=N1 [VARLITINIB]
> 30 µM (inactive),> 30 µM (inactive),> 30 µM (inactive),> 30 µM (inactive),> 30 µM (inactive),> 30 µM (inactive),> 30 µM (inactive),> 30 µM (inactive),> 30 µM (inactive),> 30 µM (inactive),> 30 µM (inactive),> 30 µM (inactive),> 30 µM (inactive),CNC(=O)c1cccc(-c2ccc3c(N4CCOC[C@@H]4C)nc(N4CCOC[C@@H]4C)nc3n2)c1 [VISTUSERTIB]
> 30 µM (inactive),> 30 µM (inactive),> 30 µM (inactive),> 30 µM (inactive),> 30 µM (inactive),> 30 µM (inactive),> 30 µM (inactive),> 30 µM (inactive),> 30 µM (inactive),> 30 µM (inactive),> 30 µM (inactive),> 30 µM (inactive),> 30 µM (inactive),NC(=O)c1ccc(N(C(N)=O)c2c(F)cccc2F)nc1-c1ccc(F)cc1F [VX-702]
> 30 µM (inactive),> 30 µM (inactive),> 30 µM (inactive),> 30 µM (inactive),> 30 µM (inactive),> 30 µM (inactive),> 30 µM (inactive),> 30 µM (inactive),> 30 µM (inactive),> 30 µM (inactive),> 30 µM (inactive),> 30 µM (inactive),> 30 µM (inactive),COc1cc2ncnc(Nc3ccc(O)cc3)c2cc1OC [WHI-P131]
